Assay results from patent publication USRE40259E1, “Alpha-aminoamide derivatives useful as analgesic agents” (Newron Pharmaceuticals, S.p.A., priority 1997, dated 2008).
Marks after values point to notes of the source that are not given here.

Columns and labels:
Type in all cases: in vivo
Male NMRI CD-1 mice = experiment: Formalin test (formalin nociception test in mice); conditions: for Licking time, Acute phase / Licking time, Chronic phase: 60 min before formalin, mice; for Licking time, Acute phase: acute phase 0-5 min; for Licking time, Chronic phase: chronic phase 30-40 min; for Effect on cumulative licking time in both phases of the formalin test: 7.5-60.0 mg/kg po, result in words
Source text: Formalin test is a useful tool for obtaining neurogenic inflammation and continuous pain (Shibata et al, Pain, 38: 347-352, 1989).
Formalin produces a distinct biphasic response. The early phase seems to be caused predominantly by C-fibre activation due to peripheral stimulus, while the late phase appears to be dependent on the combination of an inflammatory reaction in the peripheral tissue and functional changes in the dorsal horn of the spinal cord. This functional changes seem to be initiated by the C-fibre barrage during the early phase (Tjolsen et al. Pain 51, 5-17, 1992). Substance P and bradykinin participate in the early phase, while histamine, serotonin, prostaglandins and bradykinin are involved in the late phase.
Male NMRI CD-1 mice (22-25 g) were injected with […] μl of 2.7% solution of formalin into the right hindpaw and placed immediately into observation chambers. The cumulative licking time of the injected paw was recorded in the acute phase (0-5 min) and in the chronic phase (30-40 min) of the nociceptive response of formalin.
The two representative compounds of the invention (S)-2-[4-(3- fluorobenzyloxy)benzylamino]-propanamide, methanesulfonate (internal code PNU 151774E) and (S)-[2-[4-(3-fluorobenzyloxy)benzylamino]-2-methyl-propanamide […] were administered 60 min before formalin injection at the doses of 7.5, 15.0, 30.0 and 60.0 mg/kg; po. Morphine (5 mg/kg; sc) was used as a positive standard. The activities data were analysed by Dunnett's t-test.

mice [1] = experiment: Rotarod (motor co-ordination); conditions: for Rotarod co-ordination (mice fallen/total mice): 2 min on rotarod; for Effect on rotarod activity: 7.5-60.0 mg/kg po, result in words
Experimental: (§1) The effects of these compounds on locomotor activity and rotarod (a test for evaluating motor co-ordination) were studied in order to exclude changes in these parameters as confounding factors in the evaluation of the formalin response. The locomotor activity test lasted 15 min. Five minutes after testing locomotor activity, the mice were put on the rotarod for 2 min and the number of mice falling within this time were counted. Compounds PNU 151774E and PNU 156654E were tested at the doses of 7.5, 15.0, 30.0 and 60.0 mg/kg; po. The compounds were administered 60 min before locomotor activity test.

mice [2] = experiment: Locomotor activity test; conditions: for Locomotor activity counts (mean ± sem): 60 min before test, 15 min test, mice; for Effect on locomotor activity: 7.5-60.0 mg/kg po, result in words
Experimental: as §1

Row | Compound | Licking time, Acute phase (Male NMRI CD-1 mice; 7.5 mg/kg po) | Licking time, Chronic phase (Male NMRI CD-1 mice; 7.5 mg/kg po) | Licking time, Acute phase (Male NMRI CD-1 mice; 15.0 mg/kg po) | Licking time, Chronic phase (Male NMRI CD-1 mice; 15.0 mg/kg po) | Licking time, Acute phase (Male NMRI CD-1 mice; 30.0 mg/kg po) | Licking time, Chronic phase (Male NMRI CD-1 mice; 30.0 mg/kg po) | Licking time, Acute phase (Male NMRI CD-1 mice; 60.0 mg/kg po) | Licking time, Chronic phase (Male NMRI CD-1 mice; 60.0 mg/kg po) | Effect on cumulative licking time in both phases of the formalin test (Male NMRI CD-1 mice) | Rotarod co-ordination (mice fallen/total mice) (mice [1]; 7.5 mg/kg po) | Rotarod co-ordination (mice fallen/total mice) (mice [1]; 15 mg/kg po) | Rotarod co-ordination (mice fallen/total mice) (mice [1]; 30 mg/kg po) | Rotarod co-ordination (mice fallen/total mice) (mice [1]; 60 mg/kg po) | Effect on rotarod activity (mice [1]) | Locomotor activity counts (mean ± sem) (mice [2]; 7.5 mg/kg po) [counts] | Locomotor activity counts (mean ± sem) (mice [2]; 15 mg/kg po) [counts] | Locomotor activity counts (mean ± sem) (mice [2]; 30 mg/kg po) [counts] | Locomotor activity counts (mean ± sem) (mice [2]; 60 mg/kg po) [counts] | Effect on locomotor activity (mice [2])
1 | C[C@H](NCc1ccc(OCc2cccc(F)c2)cc1)C(N)=O [PNU 151774E, (S)-2-[4-(3-fluorobenzyloxy)benzylamino]-propanamide, methanesulfonate] | 137.9 ± 2.4^a sec | 72.4 ± 2.4^ sec | 87.9 ± 3.3^a sec | 64.3 ± 2.8^b sec | 79.4 ± 3.0^a sec | 56.9 ± 2.6^a sec | 63.1 ± 2.6^a sec | 38.1 ± 3.6^a sec | dose-dependently reduced cumulative licking time in both phases | 0/10 | 0/10 | 0/10 | 0/10 | without any effect | 2908 ± 234 | 2795 ± 255 | 2347 ± 203 | 2240 ± 195 | without any effect
2 | CC(C)(NCc1ccc(OCc2cccc(F)c2)cc1)C(N)=O [PNU 156654E, 2-[4-(3-fluorobenzyloxy)benzylamino]-2-methyl-propanamide] | 108.4 ± 4.2^ sec | 62.4 ± 3.6^ sec | 79.7 ± 3.7^a sec | 42.1 ± 6.2^a sec | 60.0 ± 2.3^a sec | 37.7 ± 6.9^a sec | 44.4 ± 4.2^a sec | 17.3 ± 6.6^a sec | dose-dependently reduced cumulative licking time in both phases | 0/10 | 0/10 | 0/10 | 0/10 | without any effect | 1966 ± 188 | 2110 ± 256 | 2272 ± 317 | 2119 ± 310 | without any effect
